According to ChEMBL document CHEMBL3414533, “Thiophene containing trisubstituted methanes [TRSMs] as identified lead against Mycobacterium tuberculosis” (Eur J Med Chem, 2015):
In brackets after ≈: the same amount, converted by molar mass.

How the values were obtained:
[1] = system: Mycobacterium tuberculosis; experiment: Antimycobacterial activity against multidrug-resistant Mycobacterium tuberculosis by agar dilution method; assay type: functional
[2] = system: Mycobacterium tuberculosis; experiment: Antimycobacterial activity against rifampicin-resistant Mycobacterium tuberculosis by agar dilution method; assay type: functional

Work on `COc1ccc(C(c2ccc(OCCN(C(C)C)C(C)C)cc2)c2cccs2)cc1` (configuration not stated) yielded an MIC [1] of 6.25 µM (≈ 2.65 µg/mL) and an MIC [2] of 6.25 µM (≈ 2.65 µg/mL).
